Experimental data published in patent US8933038B2, “Method of treating cancer with an HLA-A*3303-restricted WT1 peptide and pharmaceutical composition comprising the same” (International Institute of Cancer Immunology, Inc., priority 2006, dated 2015).
Ends that are not written are not given here.

Experiments:
[1] = tested on: B-LCL cells pulsed with the same WT1 peptide (BLCL-Ps)
Description: Peripheral blood mononuclear cells (PBMCs) were separated by Ficoll-Hypaque gradient density centrifugation method from peripheral blood that had been collected from an HLA-A*3303-positive healthy donor (HLA-A*3303/0207). The PBMCs were then seeded to a 24-well cell culture plate at the density of about 1×10^7 in RPMI 1640 medium containing 10% FCS, and a culture supernatant of B95-8 cells (cells producing EB virus) were added. They were cultured at 37° C. with 5% CO2 for about 1 month. B-LCL cells transformed with EB virus, which are B-cell tumor cells, were obtained. […] B-LCL cells were pulsed by incubating them with 20 μg/ml of WT1337, WT1364, WT1367 or WT1409 for 2 hours, and irradiated with 80 Gy of radiation. The resulting B-LCL cells (hereinafter referred to as B-LCL cells pulsed with a WT1 peptide) were used as antigen-presenting cells for the following experiments.
(§1) 3×10^6 of PBMCs (HLA-A*3303/1101) were cultured in a 24-well cell culture plate in complete medium (450 RPMI, 45% AMI-V medium and 10% human AB serum) containing 20 μg/ml of WT1337, WT1364, WT1367 or WT1409 at 37° C. with 5% CO2 for 1 week to obtain responding cells. 2×10^6 of the resulting responding cells were cocultured with 1×10^6 of the B-LCL cells pulsed with the same WT1 peptide in complete medium for 1 week (first stimulation). The PBMCs were cocultured with the B-LCL cells pulsed with the WT1 peptide three more times (second to fourth stimulations) under the conditions under which 20 IU/ml (final concentration) of IL-2 was added as follows: second stimulation: two times every other day from 3 days after the initiation of stimulation; third and fourth stimulations: three times at intervals of one day from the day after the initiation of stimulation. The resulting cells were concentrated using Negative Selection Columns Gravity Feed Kit (StemSp) so that the ratio of CD8-positive T cells became about 800, and cocultured with the B-LCL cells pulsed with the WT1 peptide (fifth stimulation). […]
(§2) The cytotoxic activity of CTLs was measured using ^51Cr release assay. […] The amounts of ^51Cr released into the supernatants were measured using a liquid scintillation counter. The cytotoxic activity (%) was determined using the following formula: (^51Cr release in supernatant of sample−Spontaneous ^51Cr release)/(Maximum ^51Cr release−Spontaneous ^51Cr release)×100 wherein Spontaneous ^51Cr release is ^51Cr release observed when the target cells into which ^51Cr had been incorporated were cultured alone under the same condition, and Maximum ^51Cr release is ^51Cr release observed when the target cells into which ^51Cr had been incorporated were completely lysed using 1% Triton X-100.

human cells = details: in vitro, HLA-A*2402, Non-patent Document 12; cited from earlier work
[2] = tested on: B-LCL expressing WT1 (B-LCL-WT1)
Description: 3×10^6 of PBMCs (HLA-A*3303/1101) were cultured in a 24-well cell culture plate in complete medium (450 RPMI, 45% AMI-V medium and 10% human AB serum) containing 20 μg/ml of WT1337, WT1364, WT1367 or WT1409 at 37° C. with 5% CO2 for 1 week to obtain responding cells. 2×10^6 of the resulting responding cells were cocultured with 1×10^6 of the B-LCL cells pulsed with the same WT1 peptide in complete medium for 1 week (first stimulation). […]
as §2
The cytotoxic activity of CTLs induced with WT1367 against B-LCL cell expressing WT1 was determined using the method as described above. […]

[3] = tested on: human peripheral blood mononuclear cells having HLA-A*0201; details: human PBMCs having HLA-A*0201 stimulated with peptide; Non-patent Document 11; cited from earlier work

Description for TF-1 cells: as §1, §2
The cytotoxic activity of CTLs induced with WT1364, WT1367 or WT1409 against TF-1 cells that are tumor cells expressing a WT1 gene (HLA-A*3303-positive) was determined using the method as described above. […]

Sequence: TSEKPFSCR [WT1409]
- cytotoxic activity (specific lysis) of CTLs induced with the peptide (TF-1 cells): have a cytotoxic activity against the cell expressing a WT1 gene exogenously
- cytotoxic activity (specific lysis) of CTLs induced with the peptide [1]: damage specifically BLCL-Ps

Sequence: CMTWNQMNL (listed as Homo sapiens) [WT1235]
- induction of WT1-specific CTLs (human cells): WT1-specific CTLs (TAK-1) are induced

Sequence: SDQLKRHQR [WT1367]
- cytotoxic activity (specific lysis) of CTLs induced with the peptide [2]: damage only the cell which is HLA-A*3303-positive and expresses WT1
- cytotoxic activity (specific lysis) of CTLs induced with the peptide (TF-1 cells): have a cytotoxic activity against the cell expressing a WT1 gene exogenously
- cytotoxic activity (specific lysis) of CTLs induced with the peptide [1]: damage specifically BLCL-Ps

Sequence: FSRSDQLKR [WT1364]
- cytotoxic activity (specific lysis) of CTLs induced with the peptide (TF-1 cells): have a cytotoxic activity against the cell expressing a WT1 gene exogenously
- cytotoxic activity (specific lysis) of CTLs induced with the peptide [1]: damage specifically BLCL-Ps

Sequence: SLGEQQYSV (listed as Homo sapiens) [WH187 peptide]
- induction of WT1-specific CTLs [3]: WT1-specific CTLs are induced

Sequence: LSHLQMHSR [WT1337]
- cytotoxic activity (specific lysis) of CTLs induced with the peptide [1]: damage specifically BLCL-Ps
